Measured values from publication PMC5955599, “The HTLV-1 gp21 fusion peptide inhibits antigen specific T-cell activation in-vitro and in mice” (PLoS Pathogens, 2018).

Tests used:
C57BL/6 female mice = assay: MOG35-55-induced experimental autoimmune encephalomyelitis (EAE); assay type: in vivo, mouse
Experimental: (§1) (A-B) MOG35-55–antigen specific T-cells were activated by irradiated MOG35-55 presenting APCs, in the presence of HTLV FP or HTLV Scr at 10μM. (A) The proliferative responses were assessed by H^3-thymidine incorporation assay, and normalized to the proliferation of non-activated T-cells. The data is presented as mean inhibition of proliferation. n = 12. (B) IFN-γ was measured by ELISA assay. n = 12. (C-D) EAE was induced in C57BL/6 female mice that were treated with a single dose of HTLV FP, HTLV Scr or vehicle. […] (C) Direct clinical measurement of EAE phenotype in a 5-point scale with increased disease symptoms correlating with higher score value. The data is presented as mean EAE clinical score. (D) Mice were weighed the day before EAE induction, and the change (as a percentage) in weight was recorded. The data is presented as mean change from the initial weight. One-way ANOVA was used for statistical analysis. ^a HTLV FP ≠ Vehicle; ^b HTLV FP ≠ Vehicle & HTLV Scr; ^c HTLV FP ≠ HTLV Scr. ^a,b,cP<0.05. (E) Spleenocytes were harvested at 26 DPI and stimulated using MOG35-55. The proliferative responses were assessed by H^3-thymidine incorporation assay and normalized to the proliferation of non-activated T-cells. The data is presented as counts per minute (CPM). n = 7. (F-G) Spleenocytes were harvested at 26 DPI and stimulated using MOG35-55. Media was collected 48 hours following activation and secretion of IFN-γ and IL4 was measured by ELISA assay. […] One-way ANOVA was used for statistical analysis. *P<0.05;**P<0.01;***P<0.001; ns, not significant.
EAE was induced in 9-week-old wild type and homozygous C57BL/6 female mice (Harlan Laboratories Israel/ Weizmann Institute animal facilities) by injecting a peptide comprising residues 35–55 of mouse myelin oligodendrocyte glycoprotein (MOG35–55; PolyPeptide Laboratories, Strasbourg, France). Mice were injected subcutaneously above the lumbar spinal cord with 100 μl of emulsion containing 200 μg/mouse of the encephalitogenic peptide in complete Freund’s adjuvant (BD-Difco) enriched with 250 μg/mouse of heat-inactivated Mycobacterium tuberculosis (BD-Difco) at 0 days post-induction (DPI). The HTLV FP was dissolved in PBS and added to the emulsion (1mg/kg). Pertussis toxin (Enzo Life Sciences) at a dose of 300 ng per mouse was injected intraperitoneally immediately after the encephalitogenic injection, as well as at […]. EAE disease was scored using a five-point grading with 0 for no clinical disease; 1, tail weakness; 2, paraparesis (incomplete paralysis of one or two hindlimbs); 3, paraplegia (complete paralysis of one or two hindlimbs); 4, paraplegia with forelimb weakness or paralysis; 5, moribund or dead animals. The mice were examined daily.
EAE was induced in C57BL/6 female mice that were either treated with a single dose of HTLV FP or vehicle. […] (A) Direct clinical measurement of EAE phenotype in a 5-point scale with increased disease symptoms correlating with higher score value. The data is presented as mean EAE clinical score. (B) Mice were weighed the day before EAE induction, and the change (as a percentage) in weight was recorded. The data is presented as mean change from the initial weight. Student’s t-test was used for statistical analysis. *P<0.05; **P<0.01;***P<0.001. (TIF) Click here for additional data file.

[1] = tested on: MOG35-55-reactive T-cells (spleenocytes harvested at 26 DPI); assay: Ex-vivo MOG35-55 re-stimulation of spleenocytes from EAE mice; assay type: in vivo, mouse; settings: mice treated with single dose 1mg/kg
Experimental: as §1, with “Fig 3 Administration of HTLV FP alleviates MOG35-55-induced EAE. (A-B)” for “(A-B)”
We then performed an additional EAE experiment in which mice were treated with a single dose of HTLV FP (1mg/kg), HTLV Scr (1mg/kg) or vehicle. […] As disease manifestation was milder compared to the previous experiment, we were able to monitor animals for a longer period of time. […]

[2] = harvested at 26 DPI, media 48 hours following activation, ELISA, n>8, compared to vehicle and HTLV Scr groups

AVPVAVWLVSALAMGAGVAGGITGSMSLASGKS [HTLV FP, gp21 fusion peptide of HTLV-1, MT-2 isolate]
clinical symptoms of a cage of treated mice at DPI 17 (C57BL/6 female mice; additional experiment, S5 and S6 Movies): mild clinical symptoms
mice exhibiting no clinical manifestation at DPI 17 (C57BL/6 female mice; additional experiment, S6 Movie): 3 out of 5
clinical symptoms of a cage of treated mice at DPI 9 (C57BL/6 female mice; initial experiment, S3 Movie): no observed clinical symptoms
mice exhibiting mild clinical symptoms at DPI 14 (C57BL/6 female mice; initial experiment, S4 Movie, rest with no observed clinical signs): 1 out of 5
EAE clinical symptoms, initial experiment (C57BL/6 female mice; single dose 1mg/kg added to the MOG35-55/CFA emulsion, vs vehicle, terminated at 14 DPI, 5-point scale): only mild clinical symptoms
EAE clinical signs, additional experiment (C57BL/6 female mice; single dose 1mg/kg, HTLV FP, HTLV Scr or vehicle, period 11 to 16 DPI, 5-point scale): only mild clinical symptoms and weight loss
locomotory behavior, initial experiment (C57BL/6 female mice; single dose 1mg/kg, S3 and S4 Movies): most of the HTLV FP treated mice exhibited normal locomotory behavior
locomotory behavior, additional experiment (C57BL/6 female mice; single dose 1mg/kg, S5 and S6 Movies): better locomotory behavior than the HTLV Scr treated mice
weight change, initial experiment (C57BL/6 female mice; single dose 1mg/kg, change from initial weight): only by minor weight fluctuations
weight loss, additional experiment (C57BL/6 female mice; single dose 1mg/kg, period 11 to 16 DPI): only mild clinical symptoms and weight loss
first observation of clinical symptoms, initial experiment (C57BL/6 female mice; single dose 1mg/kg, vehicle-treated mice first observed at 8 DPI): 11 DPI
IFN-γ secretion of spleenocytes stimulated with MOG35-55 [1, 2]: significantly lower IFN-γ secretion
IL4 secretion of spleenocytes stimulated with MOG35-55 [1, 2]: significantly higher IL4 secretion
T-cell proliferative response of spleenocytes stimulated with MOG35-55 ([1]; spleens harvested at 26 DPI, H3-thymidine incorporation, CPM, n = 7): significantly lower in HTLV FP treated spleenocytes compared to HTLV Scr treated spleenocytes
